The values below come from patent US7605175B2, “Inhibitors of cyclin-dependent kinases, compositions and uses related thereto” (GPC Biotech AG, priority 2001, dated 2009).

Data set [1] relates to NCI panel of 60 cell lines. Briefly: NCI panel of human tumor cell lines (SRB), Mean-Graph Mid-point. It counts as cell-based. As to conditions: read-out: NCI panel MG-MID (Mean-Graph Mid-point, average IC50 over the whole cell panel). An excerpt:
(§1) The evaluation of compounds at the National Cancer Institute in their panel of 60 cell lines provides a wealth of information regarding efficacy in a wide range of tumor types and genetic backgrounds. Included within this panel are cell lines derived from leukemia, melanoma and cancers of the lung, colon, brain, ovary, breast, prostate and kidney. Use of this panel provides a measure of the efficacy of compounds in cells with alterations in many genes that are associated with neoplastic transformation including p53 and Her2/Neu as well as those involved in metabolism and those which confer multi-drug resistance. The data generated in these cell lines with the protocol described below can be used to evaluate the activity of compounds.
Cells were grown in RPMI-1640 10% FCS and plated in 96 well micro-titer plates at densities ranging from 5,000 to 40,000 cells/well. The plates were incubated for 24 hours at 37° C., 5% CO2 for 24 hours. Media containing twice the desired final concentration of the compound (5 doses spanning 4 logs) was prepared and 100 μl was added to each well containing 100 μl media plus cells to yield the desired final concentration. The plates were then incubated for an additional 48 hours.
The effect of the compound on cellular viability was determined with the Sulforhodamine B (SRB) assay, which measures total protein. Cells were fixed with cold TCA to a final concentration of 10% and incubated at 4° C. for 60 minutes. The supernatant was discarded and the plates were washed five times with water and air-dried. SRB solution at […] in 1% acetic acid was added to each well and the plates were incubated for 10 minutes at room temperature. The plates were washed five times with 1% acetic acid and air-dried. The bound stain was solubilized with 10 mM trizma base and the absorbance was read on a plate reader at […].

For data set [2], the system named is adriamycin resistant cell line (ADR-res). Briefly: NCI panel (SRB), adriamycin resistant cell line. It counts as cell-based. The conditions noted are these: Homo sapiens.
Description: as §1
Cells were grown in RPMI-1640 10% FCS and plated in 96 well micro-titer plates at densities ranging from 5,000 to 40,000 cells/well. The plates were incubated for 24 hours at 37° C., 5% CO2 for 24 hours. […]
The effect of the compound on cellular viability was determined with the Sulforhodamine B (SRB) assay, which measures total protein. […] The bound stain was solubilized with 10 mM trizma base and the absorbance was read on a plate reader at […].

The next data set relates to HCT-116 cells. Briefly: Calcein AM viability assay, HCT-116. The conditions noted are these: Homo sapiens. The class given is cell-based. The method, boiled down: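 Cells plated (1,000 HCT-116 in RPMI-1640/10% FCS; 4,000 IMR90 in MEM-alpha/10% FCS), adhered overnight, then given 7 doses of compound at 0-250 nM for 72 h at 37 °C. Viability read by Calcein AM fluorescence (ex 485, em 530) after 75 min; IC50 derived.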

For the next data set, the target named is T1, Cdk2/cyclin E (Homo sapiens, UniProt P24941).
T1 construct: made in house; host or cells: Sf9 insect cells
Briefly: Biochemical kinase assay Cdk2/cyclin E. As to conditions: Table 6. The procedure, abridged: (§2)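 Sf9-expressed Cdk/cyclin heterodimers phosphorylate GST-Rb (residues 379–928, 40 μg) with 50 μM ATP plus [γ-33P]ATP, pH 7.5, 10% DMSO, 15 min at 30 °C. Compounds 1 nM–10 μM. 33P captured on glutathione-sepharose and scintillation-counted; activity relative to DMSO control after EDTA-background subtraction.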

Another data set concerns the target T2, Cdk4/cyclin D1 (Homo sapiens, UniProt P11802).
T2 construct: made in house; host or cells: Sf9 insect cells
The data set can be described thus: Biochemical kinase assay Cdk4/cyclin D1. The conditions noted are these: Table 6. The procedure, abridged: as §2

In a further data set the target is T3, Cdc2/cyclin B (Homo sapiens, UniProt P06493).
T3 construct: purchased
T3 sequence (P06493 whole entry, species assumed): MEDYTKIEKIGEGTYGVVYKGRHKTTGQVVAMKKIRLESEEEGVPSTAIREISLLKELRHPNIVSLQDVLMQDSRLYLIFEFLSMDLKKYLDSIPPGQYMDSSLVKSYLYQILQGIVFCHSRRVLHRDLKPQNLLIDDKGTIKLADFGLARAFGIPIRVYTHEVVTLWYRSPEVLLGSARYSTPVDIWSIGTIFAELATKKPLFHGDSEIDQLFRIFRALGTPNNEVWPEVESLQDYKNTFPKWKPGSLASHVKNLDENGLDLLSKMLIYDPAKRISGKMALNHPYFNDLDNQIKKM
T3 sequence (P14635 whole entry partner, species assumed): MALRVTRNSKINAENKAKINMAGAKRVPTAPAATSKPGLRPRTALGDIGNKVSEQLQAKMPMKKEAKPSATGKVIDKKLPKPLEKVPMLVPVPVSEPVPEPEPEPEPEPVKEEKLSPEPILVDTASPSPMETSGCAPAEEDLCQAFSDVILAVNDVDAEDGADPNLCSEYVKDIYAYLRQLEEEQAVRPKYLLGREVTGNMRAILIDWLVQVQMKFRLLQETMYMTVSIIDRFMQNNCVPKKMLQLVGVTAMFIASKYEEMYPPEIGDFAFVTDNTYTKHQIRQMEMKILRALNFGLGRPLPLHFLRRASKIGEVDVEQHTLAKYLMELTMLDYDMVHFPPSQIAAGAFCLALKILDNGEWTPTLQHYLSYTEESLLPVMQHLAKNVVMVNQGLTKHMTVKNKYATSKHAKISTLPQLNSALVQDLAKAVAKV
Briefly: Biochemical kinase assay Cdc2/cyclin B. The conditions noted are these: Table 6. The method, boiled down: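 Radiometric TCA-precipitation assay measuring [γ-32P]ATP incorporation into Histone H1 (20 μg); 50 μM ATP, 10% DMSO, Tris pH 7.5 with MgCl2 and DTT. Compounds at 1 nM to 10 μM; reaction 20 min at 30 °C, stopped with EDTA/ATP. Activity relative to DMSO control after subtracting 50 mM EDTA background.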

A further data set relates to HIV-1 ROJO. The data set can be described thus: Antiviral activity in PBMCs infected with HIV-1 ROJO (reverse transcriptase). The class given is cell-based. The conditions noted are these: for IC50: Human immunodeficiency virus 1, PBMC, 168 h, read-out: IC50: 50% inhibition of virus replication measured by reverse transcriptase levels in the supernatant, HIV-1 ROJO, 7 days post infection. Here is the method:
(§3) The activity of the certain compounds of the invention was evaluated in peripheral blood mononuclear cells (PBMCs) infected with the low passage, clinical isolate HIV-1 ROJO to generate a measure of the efficacy of these compounds in acutely infected cells. The use of these normal human cells allows an estimate of the therapeutic index of these compounds to be made. Fresh PBMCs from two donors were pooled and stimulated with PHA-P for 48-72 hours. The cells were then cultured in the presence of IL-2 to maintain the cell division initiated by the mitogenic signal. The virus was added at a multiplicity of infection of 0.1. The cells were cultured for 7 days post infection prior to the evaluation of efficacy. Viral replication was measured by the level of reverse transcriptase activity in the supernatant and cytotoxicity was measured with the MTS assay.

Data set [3] can be described thus: Cytotoxicity in PBMCs (MTS assay). The class given is cell-based, human. As to conditions: human. Here is the method:
as §3

The next data set deals with IMR90 cells. Briefly: Calcein AM viability assay, IMR90. As to conditions: Homo sapiens, IMR-90, 72 h, read-out: IMR90 viability IC50. It counts as cell-based. Here is the method:
The potency of Cdk inhibitors, as measured by loss of cellular viability, was determined with the Calcein AM assay (Molecular Probes). Calcein AM is a substrate of intracellular esterases, which is cleaved only in viable cells to generate a fluorescent product that can be quantified with a fluorescent plate reader. The fluorescent signal is proportional to the number of viable cells, and thus loss of signal in response to the exposure of cells to Cdk inhibitors correlates with a loss of viability. This assay can distinguish cell cycle arrest, in which cells may still by viable, from loss of viability and is thus well suited for the evaluation of Cdk inhibitors. A compound that is a potent cytotoxic, may cause significant loss of cell viability in such assay.
Cellular IC50's were determined in the human colorectal carcinoma cell line, HCT-116, and the normal human fibroblast, IMR90. Protein adjusted IC50's were also determined in HCT-116.
HCT-116 or IMR90 cells were recovered from sub-confluent plates by trypsinization and 1,000 or 4,000 cells, respectively, were plated in 24-well dishes and incubated overnight at 37° C., 5% CO2. […]
A 5 μM Calcein AM solution was prepared by dissolving a […] aliquot of Calcein (Molecular Probes catalog # C3100) in 50 μl DMSO. […] (protected from light) and the fluorescent signal was read on a fluorescent plate reader (excitation 485/20 and emission 530/25).

The mark [4] stands for this setting: HCT-116, non-protein adjusted, Table 6, read-out: HCT-116 viability IC50.
Setting [5] is: HCT-116, 72 h, read-out: HCT-116 IC50 Viability.

SMILES strings stand for the structures. Read-outs that look alike come from different tables or passages of the source.

T2 sequence (P11802 whole entry, species assumed): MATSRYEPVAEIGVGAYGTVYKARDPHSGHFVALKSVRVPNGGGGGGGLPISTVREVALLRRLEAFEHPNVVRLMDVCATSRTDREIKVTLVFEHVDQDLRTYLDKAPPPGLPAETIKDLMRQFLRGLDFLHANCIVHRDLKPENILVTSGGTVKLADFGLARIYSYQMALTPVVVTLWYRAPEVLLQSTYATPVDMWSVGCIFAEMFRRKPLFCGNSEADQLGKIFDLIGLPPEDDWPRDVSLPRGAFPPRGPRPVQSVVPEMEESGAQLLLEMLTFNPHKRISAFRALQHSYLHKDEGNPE
T2 sequence (P24385 whole entry partner, species assumed): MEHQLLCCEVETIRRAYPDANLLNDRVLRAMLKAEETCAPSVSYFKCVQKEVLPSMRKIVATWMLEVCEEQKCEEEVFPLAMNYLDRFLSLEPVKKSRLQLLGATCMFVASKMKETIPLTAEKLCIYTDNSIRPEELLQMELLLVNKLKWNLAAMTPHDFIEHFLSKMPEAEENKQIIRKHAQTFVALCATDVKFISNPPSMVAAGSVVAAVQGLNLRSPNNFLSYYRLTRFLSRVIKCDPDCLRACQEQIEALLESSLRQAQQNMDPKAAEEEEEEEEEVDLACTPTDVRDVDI

For `CC(C)c1nn(-c2c(Cl)cc(Cl)cc2Cl)c2nc(Cc3ccc(OCCN4CCOCC4)cc3)[nH]c(=O)c12` [A], the IC50 in [1] is less than 100 nM; in data set [2], less than 1000 nM; in the data set on HCT-116 cells (HCT-116, plus 1 mg/ml alpha acidic glycoprotein and 45 mg/ml human serum albumin, read-out: HCT-116 IC50 Protein adjusted), less than 1000 nM.
Take `CC(C)c1nn(-c2c(Cl)cccc2Cl)c2nc(Cc3ccc(OCCN4CCOCC4)c(O)c3)[nH]c(=O)c12` [Compound A32]: the IC50 was less than 100 nM in the data set with HCT-116 cells (setting [4]); less than 100 nM against Cdk2/cyclin E; less than 100 nM against Cdk4/cyclin D1; less than 1000 nM against Cdc2/cyclin B; less than 10 nM in the data set with HIV-1 ROJO. Also, the “TI: TC50/IC50” value in the data set with HIV-1 ROJO was greater than 10. In addition, the CC50 at 7 days in [3] is less than 100 nM.
As to `CC(C)c1nn(-c2c(Cl)cc(Cl)cc2Cl)c2nc(Cc3ccc(OCC(C)(C)O)cc3)[nH]c(=O)c12` [Compound A64], the 50% inhibitory concentration (IC50) in the data set with HCT-116 cells (setting [4]) is less than 100 nM; on Cdk2/cyclin E, less than 100 nM; at Cdk4/cyclin D1, less than 1000 nM; against Cdc2/cyclin B, less than 100 nM; with HIV-1 ROJO, less than 10 nM. Besides, the “TI: TC50/IC50” value in the data set with HIV-1 ROJO is given as greater than 10. In data set [3], this compound gave a CC50 at 7 days of less than 100 nM.
As for `CC(C)c1nn(-c2c(Cl)cccc2Cl)c2nc(Cc3ccc(OP(=O)(O)O)cc3)[nH]c(=O)c12` [Compound B], the IC50 with HCT-116 cells (setting [5]) and with IMR90 cells was less than 1000 nM each time.
As for `O=C(Nc1cccc2c1C(=O)c1c-2n[nH]c1-c1ccc(OP(=O)(O)O)cc1)NN1CCOCC1` [J], the results for the IC50 in the data set with HCT-116 cells (setting [5]) and with IMR90 cells were less than 1000 nM and less than 100 nM, respectively.

One may read the IC50 as the midpoint of a concentration-inhibition curve. One may read the CC50 as the concentration at which the toxic effect on the cells reaches its halfway point.
